These results are taken from PubChem BioAssay AID651865 (The Scripps Research Institute Molecular Screening Center, 2012).

The term kinact/KI denotes the second-order rate constant of inactivation.

In the assay the target is Protein-arginine deiminase type-2 (Homo sapiens) (UniProt Q9Y2J8). In words: PubChem AID 651865. The conditions noted are these: recombinant PAD2, BAEE citrulline colorimetric, inactivation kinetics; stronger effect = higher value.
Chain of Protein-arginine deiminase type-2 (Homo sapiens) (Q9Y2J8 whole entry, looked up): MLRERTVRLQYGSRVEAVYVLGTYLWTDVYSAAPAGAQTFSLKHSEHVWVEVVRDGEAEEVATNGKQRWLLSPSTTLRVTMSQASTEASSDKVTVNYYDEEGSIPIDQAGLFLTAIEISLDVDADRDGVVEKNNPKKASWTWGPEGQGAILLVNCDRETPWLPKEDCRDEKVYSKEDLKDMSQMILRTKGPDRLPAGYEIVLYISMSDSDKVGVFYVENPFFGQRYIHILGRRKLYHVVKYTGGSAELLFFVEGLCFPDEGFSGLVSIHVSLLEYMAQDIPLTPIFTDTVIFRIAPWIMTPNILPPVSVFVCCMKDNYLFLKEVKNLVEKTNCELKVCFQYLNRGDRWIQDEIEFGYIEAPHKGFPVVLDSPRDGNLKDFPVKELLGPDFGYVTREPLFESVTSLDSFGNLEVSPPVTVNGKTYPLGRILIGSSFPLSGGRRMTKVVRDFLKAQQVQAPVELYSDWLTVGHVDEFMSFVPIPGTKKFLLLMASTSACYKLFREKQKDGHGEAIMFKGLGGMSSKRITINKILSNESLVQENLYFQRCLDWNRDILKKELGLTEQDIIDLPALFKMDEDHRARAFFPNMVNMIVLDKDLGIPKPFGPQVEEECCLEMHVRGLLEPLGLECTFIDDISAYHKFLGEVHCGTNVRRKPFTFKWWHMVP

Turning to `NC1=CC(=O)c2ccc(-c3cccc(C(=O)O)n3)nc2C1=O`, the kinact/KI was 122 M⁻¹ s⁻¹.
